From patent US12331040B2 (Karyopharm Therapeutics Inc., priority 2013, dated 2025)

Legend:
Assay in all cases: MTT cell proliferation assay
Assay type in all cases: cell-based
Z138 cells = details: Homo sapiens, Z-138, Z138 cells; approximately 64-72 hours incubation; read-out: MTT Assay IC50, Z-138
Summary of the method: (§1)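 5,000-10,000 cells/well, overnight attach; 8 conc., 1 nM–30 μM; MTT ~4 h; formazan solubilized, OD 490 nm; % inhibition = (1−(ODo/OD))×100 vs neg. control; mostly duplicate, mean±SE.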

MS751 cells = details: Homo sapiens, MS751, MS751 cells; approximately 64-72 hours incubation; read-out: MTT Assay IC50, MS-751
Summary of the method: as §1

3T3 cells = details: Mus musculus, NIH3T3, approximately 64-72 hours incubation, read-out: MTT Assay IC50, 3T3
Summary of the method: as §1

Nc1ccc(/C=C/C(=O)NCc2cc3cc(-c4ccc(C(=O)N5CCC(F)(F)CC5)cc4)cc(-c4cccc(C(F)(F)F)c4)c3o2)cn1 [Compound 731, (E)-3-(6-aminopyridin-3-yl)-N-((5-(4-(4,4-difluoropiperidine-1-carbonyl)phenyl)-7-(3-(trifluoromethyl)phenyl)benzofuran-2-yl)methyl)acrylamide]
IC50 (Z138 cells): < 100 nM | IC50 (MS751 cells): 100 to 5000 nM | IC50 (3T3 cells): 100 to 5000 nM

N#Cc1cccc(-c2cc(-c3ccc(C(=O)N4CCC(F)(F)CC4)cc3)cc3cc(CNC(=O)/C=C/c4ccc(N)nc4)oc23)c1 [Compound 732, (E)-3-(6-aminopyridin-3-yl)-N-((7-(3-cyanophenyl)-5-(4-(4,4-difluoropiperidine-1-carbonyl)phenyl)benzofuran-2-yl)methyl)acrylamide]
IC50 (Z138 cells): < 100 nM | IC50 (MS751 cells): < 100 nM | IC50 (3T3 cells): 100 to 5000 nM

Nc1ccc(/C=C/C(=O)NCc2cc3cc(-c4ccc(C(=O)N5CCC(F)(F)CC5)cc4)cc(-c4ccc(C(F)(F)F)cc4)c3o2)cn1 [Compound 733, (E)-3-(6-aminopyridin-3-yl)-N-((5-(4-(4,4-difluoropiperidine-1-carbonyl)phenyl)-7-(4-(trifluoromethyl)phenyl)benzofuran-2-yl)methyl)acrylamide]
IC50 (Z138 cells): 100 to 5000 nM | IC50 (MS751 cells): 100 to 5000 nM | IC50 (3T3 cells): > 10000 nM

Nc1ccc(/C=C/C(=O)NCc2cc3cc(-c4ccc(C(=O)N5CCC(F)(F)CC5)cc4)cc(-c4cc(F)cc(F)c4)c3o2)cn1 [Compound 734, (E)-3-(6-aminopyridin-3-yl)-N-((7-(3,5-difluorophenyl)-5-(4-(4,4-difluoropiperidine-1-carbonyl)phenyl)benzofuran-2-yl)methyl)acrylamide]
IC50 (Z138 cells): < 100 nM | IC50 (MS751 cells): < 100 nM | IC50 (3T3 cells): 100 to 5000 nM

Nc1ccc(/C=C/C(=O)NCc2cc3cc(-c4ccc(C(=O)N5CCC(F)(F)CC5)cc4)cc(-c4ccc(F)nc4)c3o2)cn1 [Compound 735, (E)-3-(6-aminopyridin-3-yl)-N-((5-(4-(4,4-difluoropiperidine-1-carbonyl)phenyl)-7-(6-fluoropyridin-3-yl)benzofuran-2-yl)methyl)acrylamide]
IC50 (Z138 cells): < 100 nM | IC50 (MS751 cells): < 100 nM | IC50 (3T3 cells): 100 to 5000 nM

Nc1ccc(/C=C/C(=O)NCc2cc3cc(-c4ccc(C(=O)N5CCC(F)(F)CC5)cc4)cc(-c4ccc(F)cc4F)c3o2)cn1 [Compound 736, (E)-3-(6-aminopyridin-3-yl)-N-((7-(2,4-difluorophenyl)-5-(4-(4,4-difluoropiperidine-1-carbonyl)phenyl)benzofuran-2-yl)methyl)acrylamide]
IC50 (Z138 cells): < 100 nM | IC50 (MS751 cells): < 100 nM | IC50 (3T3 cells): 100 to 5000 nM

Nc1ccc(/C=C/C(=O)NCc2cc3cc(-c4ccc(C(=O)N5CCC(F)(F)CC5)cc4)cc(-c4ccc(F)c(F)c4)c3o2)cn1 [Compound 737, (E)-3-(6-aminopyridin-3-yl)-N-((7-(3,4-difluorophenyl)-5-(4-(4,4-difluoropiperidine-1-carbonyl)phenyl)benzofuran-2-yl)methyl)acrylamide]
IC50 (Z138 cells): < 100 nM | IC50 (MS751 cells): < 100 nM | IC50 (3T3 cells): 100 to 5000 nM

Nc1ccc(/C=C/C(=O)NCc2cc3cc(-c4ccc(C(=O)N5CCC(F)(F)CC5)cc4)cc(-c4ccc(F)cc4Cl)c3o2)cn1 [Compound 738, (E)-3-(6-aminopyridin-3-yl)-N-((7-(2-chloro-4-fluorophenyl)-5-(4-(4,4-difluoropiperidine-1-carbonyl)phenyl)benzofuran-2-yl)methyl)acrylamide]
IC50 (Z138 cells): < 100 nM | IC50 (MS751 cells): < 100 nM | IC50 (3T3 cells): 100 to 5000 nM

Nc1ccc(/C=C/C(=O)NCc2cc3cc(-c4ccc(C(=O)N5CCC(F)(F)CC5)cc4)cc(-c4ccc(Cl)cc4F)c3o2)cn1 [Compound 739, (E)-3-(6-aminopyridin-3-yl)-N-((7-(4-chloro-2-fluorophenyl)-5-(4-(4,4-difluoropiperidine-1-carbonyl)phenyl)benzofuran-2-yl)methyl)acrylamide]
IC50 (Z138 cells): 100 to 5000 nM | IC50 (MS751 cells): 100 to 5000 nM | IC50 (3T3 cells): > 10000 nM

Nc1ccc(/C=C/C(=O)NCc2cc3cc(-c4ccc(C(=O)N5CCC(F)(F)CC5)cc4)cc(-c4cc(F)ccc4F)c3o2)cn1 [Compound 740, (E)-3-(6-aminopyridin-3-yl)-N-((7-(2,5-difluorophenyl)-5-(4-(4,4-difluoropiperidine-1-carbonyl)phenyl)benzofuran-2-yl)methyl)acrylamide]
IC50 (Z138 cells): < 100 nM | IC50 (MS751 cells): < 100 nM | IC50 (3T3 cells): 100 to 5000 nM

Nc1ccc(/C=C/C(=O)NCc2cc3cc(-c4ccc(C(=O)N5CCC(F)(F)CC5)cc4)cc(-c4cccc(Cl)c4)c3o2)cn1 [Compound 741, (E)-3-(6-aminopyridin-3-yl)-N-((7-(3-chlorophenyl)-5-(4-(4,4-difluoropiperidine-1-carbonyl)phenyl)benzofuran-2-yl)methyl)acrylamide]
IC50 (Z138 cells): < 100 nM | IC50 (MS751 cells): < 100 nM | IC50 (3T3 cells): 100 to 5000 nM

Nc1ccc(/C=C/C(=O)NCc2cc3cc(-c4ccc(C(=O)N5CCC(F)(F)CC5)cc4)cc(-c4ccc(Cl)cc4)c3o2)cn1 [Compound 742, (E)-3-(6-aminopyridin-3-yl)-N-((7-(4-chlorophenyl)-5-(4-(4,4-difluoropiperidine-1-carbonyl)phenyl)benzofuran-2-yl)methyl)acrylamide]
IC50 (Z138 cells): 100 to 5000 nM | IC50 (MS751 cells): 100 to 5000 nM | IC50 (3T3 cells): > 10000 nM

Cc1cc(F)ncc1-c1cc(-c2ccc(C(=O)N3CCC(F)(F)CC3)cc2)cc2cc(CNC(=O)/C=C/c3ccc(N)nc3)oc12 [Compound 743, (E)-3-(6-aminopyridin-3-yl)-N-((5-(4-(4,4-difluoropiperidine-1-carbonyl)phenyl)-7-(6-fluoro-4-methylpyridin-3-yl)benzofuran-2-yl)methyl)acrylamide]
IC50 (Z138 cells): < 100 nM | IC50 (MS751 cells): < 100 nM | IC50 (3T3 cells): 100 to 5000 nM

Cc1ccncc1-c1cc(-c2ccc(C(=O)N3CCC(F)(F)CC3)cc2)cc2cc(CNC(=O)/C=C/c3ccc(N)nc3)oc12 [Compound 744, (E)-3-(6-aminopyridin-3-yl)-N-((5-(4-(4,4-difluoropiperidine-1-carbonyl)phenyl)-7-(4-methylpyridin-3-yl)benzofuran-2-yl)methyl)acrylamide]
IC50 (Z138 cells): < 100 nM | IC50 (MS751 cells): < 100 nM | IC50 (3T3 cells): 100 to 5000 nM

Nc1ccc(/C=C/C(=O)NCc2cc3cc(-c4ccc(Oc5ccc(F)cc5)cn4)cc(-c4ccc(F)cc4)c3o2)cn1 [Compound 745, (E)-3-(6-aminopyridin-3-yl)-N-((5-(5-(4-fluorophenoxy)pyridin-2-yl)-7-(4-fluorophenyl)benzofuran-2-yl)methyl)acrylamide]
IC50 (Z138 cells): 100 to 5000 nM | IC50 (MS751 cells): 100 to 5000 nM | IC50 (3T3 cells): > 10000 nM

Nc1ccc(/C=C/C(=O)NCc2cc3cc(-c4ccc(C(=O)N5CCC(F)(F)CC5)cc4)cc(-c4ccccn4)c3o2)cn1 [Compound 746, (E)-3-(6-aminopyridin-3-yl)-N-((5-(4-(4,4-difluoropiperidine-1-carbonyl)phenyl)-7-(pyridin-2-yl)benzofuran-2-yl)methyl)acrylamide]
IC50 (Z138 cells): < 100 nM | IC50 (MS751 cells): < 100 nM | IC50 (3T3 cells): 100 to 5000 nM

Nc1ccc(/C=C/C(=O)NCc2cc3cc(-c4ccc(C(=O)N5CC(O)(C(F)(F)F)C5)cn4)cc(C(F)(F)F)c3o2)cn1 [Compound 747, (E)-3-(6-aminopyridin-3-yl)-N-((5-(5-(3-hydroxy-3-(trifluoromethyl)azetidine-1-carbonyl)pyridin-2-yl)-7-(trifluoromethyl)benzofuran-2-yl)methyl)acrylamide]
IC50 (Z138 cells): 100 to 5000 nM | IC50 (MS751 cells): 100 to 5000 nM | IC50 (3T3 cells): > 10000 nM

Nc1ccc(/C=C/C(=O)NCc2cc3cc(-c4ccc(C(=O)N5CCC(F)(F)CC5)cc4F)cc(-c4cccnc4)c3o2)cn1 [Compound 748, (E)-3-(6-aminopyridin-3-yl)-N-((5-(4-(4,4-difluoropiperidine-1-carbonyl)-2-fluorophenyl)-7-(pyridin-3-yl)benzofuran-2-yl)methyl)acrylamide]
IC50 (Z138 cells): < 100 nM | IC50 (MS751 cells): < 100 nM | IC50 (3T3 cells): 100 to 5000 nM

Nc1ccc(/C=C/C(=O)NCc2cc3cc(-c4ccc(C(=O)N5CCC(F)(F)CC5)cc4F)cc(-c4ccc(C(F)(F)F)cc4)c3o2)cn1 [Compound 749, (E)-3-(6-aminopyridin-3-yl)-N-((5-(4-(4,4-difluoropiperidine-1-carbonyl)-2-fluorophenyl)-7-(4-(trifluoromethyl)phenyl)benzofuran-2-yl)methyl)acrylamide]
IC50 (Z138 cells): 100 to 5000 nM | IC50 (MS751 cells): > 10000 nM | IC50 (3T3 cells): > 10000 nM

Nc1ccc(/C=C/C(=O)NCc2cc3cc(-c4ccc(C(=O)N5CCC(F)(F)CC5)cc4F)cc(-c4ccc(Cl)cc4)c3o2)cn1 [Compound 750, (E)-3-(6-aminopyridin-3-yl)-N-((7-(4-chlorophenyl)-5-(4-(4,4-difluoropiperidine-1-carbonyl)-2-fluorophenyl)benzofuran-2-yl)methyl)acrylamide]
IC50 (Z138 cells): 100 to 5000 nM | IC50 (MS751 cells): 100 to 5000 nM | IC50 (3T3 cells): > 10000 nM

Nc1ccc(/C=C/C(=O)NCc2cc3cc(-c4ccc(C(=O)N5CCC(F)(F)CC5)cc4F)cc(-c4ccc(F)cc4)c3o2)cn1 [Compound 751, (E)-3-(6-aminopyridin-3-yl)-N-((5-(4-(4,4-difluoropiperidine-1-carbonyl)-2-fluorophenyl)-7-(4-fluorophenyl)benzofuran-2-yl)methyl)acrylamide]
IC50 (Z138 cells): < 100 nM | IC50 (MS751 cells): < 100 nM | IC50 (3T3 cells): 100 to 5000 nM

O=C(/C=C/c1cccnc1)NCc1cc2cc(-c3ccc(C(=O)N4CCC(F)(F)CC4)cn3)cc(OC(F)(F)F)c2o1 [Compound 752, (E)-N-((5-(5-(4,4-difluoropiperidine-1-carbonyl)pyridin-2-yl)-7-(trifluoromethoxy)benzofuran-2-yl)methyl)-3-(pyridin-3-yl)acrylamide]
IC50 (Z138 cells): < 100 nM | IC50 (MS751 cells): < 100 nM | IC50 (3T3 cells): < 100 nM
